Results taken from the supplement of paper PMC7600603.

Experiments:
DLD1 NRF2-GOF [1] = assay: TC50 cytotoxicity; higher = less toxic; conditions: 72 h; CellTox Green cytotoxicity
How it was run: (§1)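 In 384-well plates, isogenic DLD1 cells with NRF2 wild-type or CRISPR-edited status, grown in DMEM with 10% FBS, received library compounds at 5 concentrations spanning a 10,000-fold range. At 72 h, CellTox Green signals were read on a Pherastar FS reader and scaled between vehicle wells and 100-μM positive-control wells. Cytotoxicity endpoints, TC50 and a drug sensitivity score based on normalised area under the curve, came from logistic dose-response fits.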

DLD1 NRF2-WT [2] = assay: TC50 cytotoxicity; higher = less toxic; conditions: 72 h; CellTox Green cytotoxicity
How it was run: as §1

DLD1 NRF2-GOF [3] = assay: drug sensitivity score (DSS) viability (DSS score); higher = more sensitive; extreme values may be limits of the assay; conditions: 72 h; CellTiter-Glo viability
How it was run: (§2)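 Isogenic DLD1 colorectal cancer cells, either NRF2 wild-type or CRISPR gain-of-function, were grown in DMEM with 10% FBS. They were exposed in 384-well plates to library compounds at 5 concentrations spanning a 10,000-fold range. After 72 h, viability was read by CellTiter-Glo on a Pherastar FS reader and normalised to vehicle wells and 100-μM positive-control wells. EC50 and drug sensitivity score (a normalised area under the curve) came from four-parameter logistic dose-response fits.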

DLD1 NRF2-WT [4] = assay: as above; conditions: 72 h; CellTiter-Glo viability
How it was run: as §2

DLD1 NRF2-GOF [5] = conditions: 72 h; CellTiter-Glo viability
How it was run: as §2

DLD1 NRF2-WT [6] = conditions: 72 h; CellTiter-Glo viability
How it was run: as §2

DLD1 NRF2-GOF [7] = assay: drug sensitivity score (DSS) cytotoxicity (DSS score); higher = more toxic; extreme values may be limits of the assay; conditions: 72 h; CellTox Green cytotoxicity
How it was run: as §1

DLD1 NRF2-WT [8] = assay: as above; conditions: 72 h; CellTox Green cytotoxicity
How it was run: as §1

Row | Structure (SMILES) | EC50 viability (DLD1 NRF2-GOF [5]) | EC50 viability (DLD1 NRF2-WT [6]) | TC50 cytotoxicity (DLD1 NRF2-GOF [1]) | TC50 cytotoxicity (DLD1 NRF2-WT [2]) | drug sensitivity score (DLD1 NRF2-GOF [3]) | drug sensitivity score (DLD1 NRF2-WT [4]) | drug sensitivity score (DLD1 NRF2-GOF [7]) | drug sensitivity score (DLD1 NRF2-WT [8])
1 | CCCCC(=O)OCC(=O)[C@]1(O)Cc2c(O)c3c(c(O)c2[C@@H](O[C@H]2C[C@H](NC(=O)C(F)(F)F)[C@H](O)[C@H](C)O2)C1)C(=O)c1c(OC)cccc1C3=O [Valrubicin] | 0.479 µM | 0.547 µM | > 5 µM | > 5 µM | 8.1 | 6.8 | 0 | 0
2 | C[C@]1(c2nc3c(C(N)=O)cccc3[nH]2)CCCN1 [Veliparib] | > 10 µM | 1.57 µM | > 10 µM | > 10 µM | 0 | 2.9 | 0 | 0
3 | CCCS(=O)(=O)Nc1ccc(F)c(C(=O)c2c[nH]c3ncc(-c4ccc(Cl)cc4)cc23)c1F [Vemurafenib] | > 10 µM | > 10 µM | > 10 µM | > 10 µM | 0 | 0.2 | 0 | 0
4 | CCCCOc1nc(N)c2c(n1)N(Cc1cccc(CN3CCCC3)c1)CC(=O)N2 [Vesatolimod] | > 10 µM | > 10 µM | > 10 µM | > 10 µM | 0.1 | 0 | 0 | 0
5 | CNC(=O)c1cccc(-c2ccc3c(N4CCOC[C@@H]4C)nc(N4CCOC[C@@H]4C)nc3n2)c1 [Vistusertib] | 0.675 µM | 0.371 µM | > 10 µM | > 10 µM | 9.9 | 11.9 | 0 | 0
6 | Cc1sc2c(c1C)C(c1ccc(Cl)cc1)=N[C@@H](CC(=O)NCCCCNC(=O)COc1cccc3c1C(=O)N(C1CCC(=O)NC1=O)C3=O)c1nnc(C)n1-2 (some centres undefined) [dBET1] | > 10 µM | 0.62 µM | > 10 µM | > 10 µM | 0.7 | 6.5 | 0 | 0

Continued, in another order:

Row | EC50 viability (DLD1 NRF2-GOF [5]) | EC50 viability (DLD1 NRF2-WT [6]) | Structure (SMILES) | TC50 cytotoxicity (DLD1 NRF2-GOF [1]) | TC50 cytotoxicity (DLD1 NRF2-WT [2]) | drug sensitivity score (DLD1 NRF2-GOF [3]) | drug sensitivity score (DLD1 NRF2-WT [4]) | drug sensitivity score (DLD1 NRF2-GOF [7]) | drug sensitivity score (DLD1 NRF2-WT [8])
7 | > 10 µM | > 10 µM | O=c1ncn2nc(Sc3ccc(F)cc3F)ccc2c1-c1c(Cl)cccc1Cl [VX-745] | > 10 µM | > 10 µM | 0.2 | 1.4 | 0 | 0
8 | 0.179 µM | 0.12 µM | FC(F)c1nc2ccccc2n1-c1nc(N2CCOCC2)nc(N2CCOCC2)n1 [ZSTK474] | > 10 µM | > 10 µM | 6.2 | 11.4 | 0 | 0
